In patent US8202874B2, “Substituted N-oxide pyrazine derivatives” (Mitsubishi Tanabe Pharma Corporation, priority 2008, dated 2012):

Molecular target: GSK3β (Homo sapiens, UniProt P49841)
Assay: Inhibitory activity against GSK3β (33P-ATP phosphorylation of prephosphorylated GS1 peptide)
Format: biochemical
Conditions: protocol 3: 7.5 μM GS1 peptide, 10 μM ATP, 50 mM Hepes pH 7.2, one hour at room temperature
Procedure: Four different protocols can be used.
In a first protocol: 7.5 μM of prephosphorylated GS1 peptide and 10 μM ATP (containing 300,000 cpm of ^33P-ATP) were incubated in 25 mM Tris-HCl, pH 7.5, 0.6 mM DTT, 6 mM MgCl2, 0.6 mM EGTA, 0.05 mg/ml BSA buffer for 1 hour at room temperature in the presence of GSK3beta (total reaction volume: 100 microliters).
In a second protocol: 4.1 μM of prephosphorylated GS1 peptide and 42 μM ATP (containing 260,000 cpm ^33P-ATP) were incubated in 80 mM Mes-NaOH, pH 6.5, 1 mM Mg acetate, 0.5 mM EGTA, 5 mM 2-mercaptoethanol, 0.02% Tween 20, 10% glycerol buffer for 2 hours at room temperature in the presence of GSK3beta.
In a third protocol: 7.5 μM of prephosphorylated GS1 peptide and 10 μM ATP (containing 300,000 cpm of ^33P-ATP) were incubated in 50 mM Hepes, pH 7.2, 1 mM DTT, 1 mM MgCl2, 1 mM EGTA, 0.01% Tween 20 buffer for one hour at room temperature in the presence of GSK3beta (total reaction volume: 100 microliters). […]
The reaction was stopped with 100 microliters of a solution made of 25 g polyphosphoric acid (85% P2O5), 126 ml 85% H3PO4, H2O to 500 ml and then diluted to 1:100 before use. […] Incorporated ^33P radioactivity was determined by liquid scintillation spectrometry. […]

GSK3β, sequence (P49841 whole entry): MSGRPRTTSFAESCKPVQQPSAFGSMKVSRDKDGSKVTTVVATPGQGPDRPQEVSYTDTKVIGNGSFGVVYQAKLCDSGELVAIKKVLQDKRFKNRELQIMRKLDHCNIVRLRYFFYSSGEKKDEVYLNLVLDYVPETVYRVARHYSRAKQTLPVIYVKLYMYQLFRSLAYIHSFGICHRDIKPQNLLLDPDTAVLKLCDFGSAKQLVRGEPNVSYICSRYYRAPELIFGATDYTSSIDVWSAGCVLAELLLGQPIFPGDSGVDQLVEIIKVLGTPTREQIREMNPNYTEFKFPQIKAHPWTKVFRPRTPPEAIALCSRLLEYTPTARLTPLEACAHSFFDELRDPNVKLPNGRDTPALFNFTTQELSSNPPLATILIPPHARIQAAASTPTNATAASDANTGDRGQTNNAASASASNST

SMILES: [O-][n+]1cc(NCC(O)c2ccccc2)nc(-c2ccncc2)c1 (racemic) [compound 2, (+/−)2-[(4-oxido-6-pyridin-4-ylpyrazin-2-yl)amino]-1-phenylethanol]
- IC50: 0.506 µM
